# Reference: article PMC3692398 (Biochemical pharmacology, 2013)
# Assays:
# hSERT [1] = target: T1, hSERT (Homo sapiens, UniProt P31645); assay: Inhibition of [125I]RTI-55 binding, HEK-hSERT membranes
# hNET [2] = target: T2, hNET (Homo sapiens, UniProt P23975); assay: biochemical; format: binding
# hSERT [3] = target: T1, hSERT; assay: Inhibition of [3H]5-HT uptake, intact HEK-hSERT cells; format: cell-based
# hNET [4] = target: T2, hNET; assay: cell-based; format: cell-based
# human DA D2 receptor = human DA D2 receptor (Homo sapiens, UniProt P14416); format: binding
# Sequence of human DA D2 receptor (P14416 whole entry): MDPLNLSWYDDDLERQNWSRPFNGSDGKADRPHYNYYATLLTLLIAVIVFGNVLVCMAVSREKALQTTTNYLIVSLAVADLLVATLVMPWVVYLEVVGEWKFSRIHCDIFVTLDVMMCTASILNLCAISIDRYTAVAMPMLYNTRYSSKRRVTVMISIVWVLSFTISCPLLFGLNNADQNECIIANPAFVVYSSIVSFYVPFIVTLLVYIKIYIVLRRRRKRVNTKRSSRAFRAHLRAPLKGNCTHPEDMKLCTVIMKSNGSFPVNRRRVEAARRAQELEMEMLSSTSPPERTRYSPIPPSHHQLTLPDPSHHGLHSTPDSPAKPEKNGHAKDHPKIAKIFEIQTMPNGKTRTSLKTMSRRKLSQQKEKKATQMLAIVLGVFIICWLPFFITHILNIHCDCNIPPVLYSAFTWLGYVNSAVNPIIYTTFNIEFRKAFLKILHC
# T2 sequence (P23975 whole entry): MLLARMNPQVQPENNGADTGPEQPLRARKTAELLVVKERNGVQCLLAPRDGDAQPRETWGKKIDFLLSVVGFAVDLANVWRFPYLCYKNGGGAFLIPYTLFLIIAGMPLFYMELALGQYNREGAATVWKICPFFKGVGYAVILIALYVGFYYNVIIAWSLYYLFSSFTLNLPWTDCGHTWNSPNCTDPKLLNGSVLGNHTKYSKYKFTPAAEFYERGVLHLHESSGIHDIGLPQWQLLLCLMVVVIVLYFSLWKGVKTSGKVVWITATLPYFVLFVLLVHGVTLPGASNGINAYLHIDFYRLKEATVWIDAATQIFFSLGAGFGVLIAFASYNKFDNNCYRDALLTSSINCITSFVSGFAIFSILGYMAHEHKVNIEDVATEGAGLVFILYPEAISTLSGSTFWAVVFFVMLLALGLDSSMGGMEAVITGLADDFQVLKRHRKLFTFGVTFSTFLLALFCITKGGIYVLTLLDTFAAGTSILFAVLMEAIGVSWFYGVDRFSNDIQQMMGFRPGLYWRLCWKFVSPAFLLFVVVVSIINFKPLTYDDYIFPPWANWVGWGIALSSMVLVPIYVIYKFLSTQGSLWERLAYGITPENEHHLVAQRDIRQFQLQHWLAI
# T1 sequence (P31645 whole entry): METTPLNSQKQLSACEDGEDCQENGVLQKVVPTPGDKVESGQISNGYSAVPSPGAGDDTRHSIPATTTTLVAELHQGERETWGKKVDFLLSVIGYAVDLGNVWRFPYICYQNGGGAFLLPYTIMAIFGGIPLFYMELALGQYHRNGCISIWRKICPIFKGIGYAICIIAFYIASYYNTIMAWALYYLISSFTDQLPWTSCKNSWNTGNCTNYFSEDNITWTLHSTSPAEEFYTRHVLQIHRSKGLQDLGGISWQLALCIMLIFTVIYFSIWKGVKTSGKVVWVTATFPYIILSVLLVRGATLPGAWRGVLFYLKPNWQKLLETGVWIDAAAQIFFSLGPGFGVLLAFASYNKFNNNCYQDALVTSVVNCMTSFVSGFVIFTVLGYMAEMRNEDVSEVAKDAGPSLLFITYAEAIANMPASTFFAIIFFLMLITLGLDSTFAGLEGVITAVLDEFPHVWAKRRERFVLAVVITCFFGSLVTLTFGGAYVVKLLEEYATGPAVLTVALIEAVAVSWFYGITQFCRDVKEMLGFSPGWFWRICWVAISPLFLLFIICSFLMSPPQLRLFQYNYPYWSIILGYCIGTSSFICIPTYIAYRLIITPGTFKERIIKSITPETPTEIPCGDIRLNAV
Structure (SMILES),Ki (hSERT [1]) [nM],Ki (hNET [2]) [nM],IC50 (hSERT [3]) [nM],IC50 (hNET [4]) [nM],"affinity for the [3H]YM-09151-2 binding site, DA D2 receptor (human DA D2 receptor)"
"OC1(c2ccc(Cl)cc2)c2ccccc2C2=NCCN21 (centres unmarked) [Mazindol, reference compound]",26 ± 12,5.4 ± 1.6,30.7 ± 5.5,1.85 ± 0.49,–
CC(C)(C)[C@]1(O)CCN2C[C@H]3c4ccccc4CCc4cccc(c43)[C@@H]2C1 [butaclamol],–,–,–,–,subnanomolar
